Reference: patent US11124497B1, “Inhibitors of cysteine proteases and methods of use thereof” (priority 2020, dated 2021)
pEC50, pIC50: −log10 of the molar value.

How the values were obtained:
[1] = biological target: SARS-COV2 Mpro (Severe acute respiratory syndrome coronavirus 2 (2019-nCoV) (SARS-CoV-2), UniProt P0DTD1); experiment: COVID-19 (nCoV-2019, SARS-CoV2) Mpro enzymatic assay; type: biochemical; settings: 25 nM Mpro, 25 μM substrate
[2] = biological target: 229E mPRO (Human coronavirus 229E (HCoV-229E), UniProt P0C6X1); experiment: 229E mPRO enzymatic assay; type: biochemical, Human Coronavirus (HCov) 229E; settings: read-out: 229E mPRO IC50
229E mPRO, sequence (P0C6X1 2966-3267 limits assumed): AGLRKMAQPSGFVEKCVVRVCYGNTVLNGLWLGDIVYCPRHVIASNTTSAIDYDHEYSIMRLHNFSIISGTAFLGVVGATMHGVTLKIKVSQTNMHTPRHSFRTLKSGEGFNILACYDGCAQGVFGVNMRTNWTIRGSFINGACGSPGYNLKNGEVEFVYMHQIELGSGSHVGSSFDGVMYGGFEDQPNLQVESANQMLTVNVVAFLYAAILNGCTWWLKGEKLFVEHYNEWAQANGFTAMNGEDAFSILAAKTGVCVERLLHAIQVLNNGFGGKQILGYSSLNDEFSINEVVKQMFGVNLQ
Experimental: Compounds were assayed using standard methods to assess compound activity and IC50. […] The assay buffer contained 20 mM of Tris-HCl (pH 7.3), 100 mM of NaCl, 1 mM of EDTA, 5 mM of TCEP and 0.1% BSA.
The compounds were added to an assay plate.
IC50 values of compounds were calculated with the GraphPad Prism software using the nonlinear regression model of log(inhibitor) vs. response—Variable slope (four parameters). The inhibition activity was calculated using the formula below, IC50 values was calculated using the Inhibition % data. Inhibition %=[(Sample−Average ZPE)/(Average HPE−Average ZPE)]*100%^# • ^#HEP: Hundred percent effect controls. […] Containing enzyme+substrate, no compound. • Sample: Compound activity testing wells. Containing compound+enzyme+substrate. • BG: Compound background control wells. Containing compound+substrate, no enzyme.

[3] = system: HCoV 229E; experiment: HCoV 229E cytopathic effect (CPE) assay; type: cell-based, Human Coronavirus (HCov) 229E; settings: unidentified human coronavirus, CellTiter Glo, read-out: 229 ECPE EC50
Experimental: Compounds were assayed using standard methods against multiple coronaviral strains, including HCoV 229E and OC43 strains. The antiviral activity of compounds was calculated based on the protection of the virus-induced CPE at each concentration normalized by the virus control.
Cytopathic effect (CPE) was measured by CellTiter Glo following the manufacturer's manual. The antiviral activity of compounds was calculated based on the protection of the virus-induced CPE at each concentration normalized by the virus control.

[4] = in vitro
[5] = Cytotoxicity under 229E CPE assay conditions without virus infection (CellTiter Glo)

Row | SMILES | pIC50 [1] | pIC50 [2] | pEC50 [3] | CC50 [4] [µM] | CC50 [5] [µM]
1 | COc1cccc2[nH]c(C(=O)N[C@@H](CC(C)C)C(=O)N[C@H](C#N)Cc3cc[nH]n3)cc12 (mixture of isomers) [Compound 241] | < 4.52 | < 4.52 |  |  | 
2 | COc1cccc2[nH]c(C(=O)N[C@@H](CC(C)C)C(=O)N[C@@H](C[C@@H]3CCNC3=O)C(C#N)Nc3ccccc3)cc12 (stereo partly shown) [Compound 327] | > 4.66 | > 4.66 | 5.00 to 5.70 |  | 
3 | COc1cccc2[nH]c(C(=O)N[C@H](CN[C@H](C#N)C[C@@H]3CCNC3=O)CC(C)(C)C)cc12 [Compound 659] | < 4.52 | < 4.52 |  |  | 
4 | COc1cccc2[nH]c(C(=O)N3CC(c4ccccc4)CC3C(=O)NC(C#N)CC3CCNC3=O)cc12 (stereo not shown) [Compound 170] |  |  |  | > 30 | 
5 | CC(C)(C)OC(=O)N1CCCCC12CCN([C@@H](CC1CC1)C(=O)N[C@H](C#N)C[C@@H]1CCNC1=O)C2=O (single isomer, unassigned) [473 (Isomer 2)] | < 4.52 | < 4.52 |  |  | 
6 | N#C[C@H](C[C@@H]1CCNC1=O)NC(=O)[C@@H]1CS[C@H]2CC[C@H](N)C(=O)N21 [Compound 479] | < 4.52 | 4.52 to 5.00 |  |  | 
7 | COc1cccc2[nH]c(C(=O)N[C@@H](CC(C)C)C(=O)N[C@@H](C#N)Cc3cc(=O)[nH]c4ccccc34)cc12 (mixture of isomers) [Compound 237] | < 4.52 | < 4.52 |  |  | 
8 | N#C[C@H](C[C@@H]1CCNC1=O)NC(=O)[C@H](CC1CC1)n1ccc2[nH]cnc2c1=O [Compound 269] | < 4.52 | < 4.52 |  |  | 
9 | COc1cccc2[nH]c(C(=O)N3CC4(CCC4)CC3C(=O)N[C@H](C#N)C[C@@H]3CCCNC3=O)cc12 (single isomer, unassigned) [719 (Isomer 2)] | > 4.66 | > 4.66 | > 4.66 |  | 
10 | COc1cccc2[nH]c(C(=O)N[C@@H](CC3CC3)C(=O)N[C@@]3(C#N)CC4CCC3[C@H]3C(=O)NC(=O)[C@@H]43)cc12 (single isomer, unassigned) [489 (Isomer 1)] | < 4.52 | < 4.52 |  |  | 
11 | N#C[C@H](C[C@@H]1CCNC1=O)NC(=O)[C@@H]1CCc2ccc(NCC(=O)Oc3ccccc3)c(=O)n21 [Compound 483] | < 4.52 | < 4.52 |  |  | 
12 | COc1cccc2[nH]c(C(=O)N[C@@H](CC(C)C)C(=O)N[C@@H](C[C@@H]3CCNC3=O)C(O)C#N)cc12 (stereo partly drawn) [Compound 135, N-[(1S)-1-[[(1S)-2-cyano-2-hydroxy-1-[[(3S)-2-oxopyrrolidin-3-yl]methyl]ethyl]carbamoyl]-3-methyl-butyl]-4-methoxy-1H-indole-2-carboxamide] |  |  | > 4.66 | > 30 | 
13 | COc1nccc2[nH]c(C(=O)N[C@@H](CC3CC3)C(=O)N[C@H](C#N)C[C@@H]3CCCNC3=O)cc12 [Compound 623] | < 4.52 | < 4.52 |  |  | 
14 | COc1cccc2[nH]c(C(=O)N[C@@H](CC3CC3)C(=O)N[C@@]3(C#N)CCc4cccnc4C3)cc12 [Compound 279] | < 4.52 | < 4.52 |  |  | 
15 | CC(C)CC(NC(=O)c1nc2ncccc2[nH]1)C(=O)NC(C#N)CC1CCNC1=O (single isomer, unassigned) [130 (Isomer 1)] |  |  |  |  | > 30
16 | N#C[C@H](C[C@@H]1CCNC1=O)NC(=O)[C@@H]1CCc2ccc(NCC(=O)O)c(=O)n21 [Compound 501] | < 4.52 | < 4.52 |  |  | 
17 | COc1cccc2[nH]c(C(=O)N[C@@H](CC(C)C)C(=O)N[C@@H](C[C@@H]3CCNC3=O)C(C#N)NCC(=O)O)cc12 (stereo partly shown) [Compound 653] | > 4.66 | > 4.66 | > 4.66 |  | 
18 | COc1cccc2[nH]c(C(=O)N[C@@H](CC(C)C)C(=O)N[C@H](C#N)Cc3cncn3C)cc12 [Compound 225, N-[(1S)-1-[[(1S)-1-cyano-2-(3-methylimidazol-4-yl)ethyl]carbamoyl]-3-methyl-butyl]-4-methoxy-1H-indole-2-carboxamide] | < 4.52 | < 4.52 |  |  | 
